# Test results: ChEMBL document CHEMBL1781873, “Synthesis and antibacterial property of pyrrolopyrano quinolinones and pyrroloquinolines” (2011)
# Active and inactive are the calls of the source. The rule behind the calls is not given here.
# What was measured:
# Escherichia coli [1] = experiment: Inhibition of Escherichia coli DNA gyrase assessed as inhibition of DNA supercoiling activity using pBR322 DNA as substrate at […] after 3 hrs by agarose gel electrophoresis
# Salmonella typhi [2] = experiment: Antibacterial activity against Salmonella typhi at 5 ug after 24 hrs by disc diffusion assay; type: functional, Salmonella enterica subsp. enterica serovar Typhi; conditions: Salmonella enterica, read-out: IZ
# Escherichia coli [3] = experiment: Inhibition of DNA gyrase mRNA expression in Escherichia coli measured up to 24 hrs by RT-PCR; type: functional, organism-based
# Escherichia coli [4] = experiment: Antibacterial activity against Escherichia coli at 5 ug after 24 hrs by disc diffusion assay; type: functional; conditions: read-out: IZ
# Klebsiella pneumoniae [5] = experiment: Antibacterial activity against Klebsiella pneumoniae at 5 ug after 24 hrs by disc diffusion assay; type: functional; conditions: read-out: IZ
# Bacillus subtilis [6] = experiment: Antibacterial activity against Bacillus subtilis after 18 to 20 hrs by broth micro dilution assay; type: functional
# Pseudomonas aeruginosa [7] = experiment: Antibacterial activity against Pseudomonas aeruginosa at 10 ug after 24 hrs by disc diffusion assay; type: functional; conditions: read-out: IZ
# Staphylococcus aureus [8] = experiment: Antibacterial activity against Staphylococcus aureus at 25 ug after 24 hrs by disc diffusion assay; type: functional; conditions: read-out: IZ
# Escherichia coli [9] = experiment: Antibacterial activity against Escherichia coli at 10 ug after 24 hrs by disc diffusion assay; type: functional; conditions: read-out: IZ
# Staphylococcus aureus [10] = experiment: Antibacterial activity against Staphylococcus aureus at 5 ug after 24 hrs by disc diffusion assay; type: functional; conditions: read-out: IZ
# Pseudomonas aeruginosa [11] = experiment: Antibacterial activity against Pseudomonas aeruginosa after 18 to 20 hrs by broth micro dilution assay; type: functional
# Escherichia coli [12] = experiment: Antibacterial activity against Escherichia coli at 15 ug after 24 hrs by disc diffusion assay; type: functional; conditions: read-out: IZ
# Salmonella typhi [13] = experiment: Antibacterial activity against Salmonella typhi at 20 ug after 24 hrs by disc diffusion assay; type: functional, Salmonella enterica subsp. enterica serovar Typhi; conditions: Salmonella enterica, read-out: IZ
# Staphylococcus aureus [14] = experiment: Antibacterial activity against Staphylococcus aureus at 20 ug after 24 hrs by disc diffusion assay; type: functional; conditions: read-out: IZ
# Klebsiella pneumoniae [15] = experiment: Antibacterial activity against Klebsiella pneumoniae at 20 ug after 24 hrs by disc diffusion assay; type: functional; conditions: read-out: IZ
# Pseudomonas aeruginosa [16] = experiment: Antibacterial activity against Pseudomonas aeruginosa at 20 ug after 24 hrs by disc diffusion assay; type: functional; conditions: read-out: IZ
# Salmonella typhi [17] = experiment: Antibacterial activity against Salmonella typhi at 10 ug after 24 hrs by disc diffusion assay; type: functional, Salmonella enterica subsp. enterica serovar Typhi; conditions: Salmonella enterica, read-out: IZ
# Pseudomonas aeruginosa [18] = experiment: Antibacterial activity against Pseudomonas aeruginosa at 5 ug after 24 hrs by disc diffusion assay; type: functional; conditions: read-out: IZ
# Salmonella typhi [19] = experiment: Antibacterial activity against Salmonella typhi after 18 to 20 hrs by broth micro dilution assay; type: functional, Salmonella enterica subsp. enterica serovar Typhi; conditions: Salmonella enterica
# Escherichia coli [20] = experiment: Antibacterial activity against Escherichia coli after 18 to 20 hrs by broth micro dilution assay; type: functional
# Bacillus subtilis [21] = experiment: Antibacterial activity against Bacillus subtilis at 10 ug after 24 hrs by disc diffusion assay; type: functional; conditions: read-out: IZ
# Escherichia coli [22] = experiment: Inhibition of Escherichia coli DNA gyrase -mediated DNA relaxation using pBR322 DNA as substrate at […] after 1 hrs by agarose gel electrophoresis
# Salmonella typhi [23] = experiment: Antibacterial activity against Salmonella typhi at 15 ug after 24 hrs by disc diffusion assay; type: functional, Salmonella enterica subsp. enterica serovar Typhi; conditions: Salmonella enterica, read-out: IZ
# Bacillus subtilis [24] = experiment: Antibacterial activity against Bacillus subtilis at 15 ug after 24 hrs by disc diffusion assay; type: functional; conditions: read-out: IZ
# Bacillus subtilis [25] = experiment: Antibacterial activity against Bacillus subtilis at 25 ug after 24 hrs by disc diffusion assay; type: functional; conditions: read-out: IZ
# Klebsiella pneumoniae [26] = experiment: Antibacterial activity against Klebsiella pneumoniae after 18 to 20 hrs by broth micro dilution assay; type: functional
# Pseudomonas aeruginosa [27] = experiment: Antibacterial activity against Pseudomonas aeruginosa at 15 ug after 24 hrs by disc diffusion assay; type: functional; conditions: read-out: IZ
# Escherichia coli [28] = experiment: Antibacterial activity against Escherichia coli at 25 ug after 24 hrs by disc diffusion assay; type: functional; conditions: read-out: IZ
# Staphylococcus aureus [29] = experiment: Antibacterial activity against Staphylococcus aureus after 18 to 20 hrs by broth micro dilution assay; type: functional
# Klebsiella pneumoniae [30] = experiment: Antibacterial activity against Klebsiella pneumoniae at 25 ug after 24 hrs by disc diffusion assay; type: functional; conditions: read-out: IZ
# Escherichia coli [31] = experiment: Antibacterial activity against Escherichia coli at 20 ug after 24 hrs by disc diffusion assay; type: functional; conditions: read-out: IZ
# Pseudomonas aeruginosa [32] = experiment: Antibacterial activity against Pseudomonas aeruginosa at 25 ug after 24 hrs by disc diffusion assay; type: functional; conditions: read-out: IZ
# Klebsiella pneumoniae [33] = experiment: Antibacterial activity against Klebsiella pneumoniae at 10 ug after 24 hrs by disc diffusion assay; type: functional; conditions: read-out: IZ
# Staphylococcus aureus [34] = experiment: Antibacterial activity against Staphylococcus aureus at 10 ug after 24 hrs by disc diffusion assay; type: functional; conditions: read-out: IZ
# Bacillus subtilis [35] = experiment: Antibacterial activity against Bacillus subtilis at 20 ug after 24 hrs by disc diffusion assay; type: functional; conditions: read-out: IZ
# Staphylococcus aureus [36] = experiment: Antibacterial activity against Staphylococcus aureus at 15 ug after 24 hrs by disc diffusion assay; type: functional; conditions: read-out: IZ
# Klebsiella pneumoniae [37] = experiment: Antibacterial activity against Klebsiella pneumoniae at 15 ug after 24 hrs by disc diffusion assay; type: functional; conditions: read-out: IZ
# Salmonella typhi [38] = experiment: Antibacterial activity against Salmonella typhi at 25 ug after 24 hrs by disc diffusion assay; type: functional, Salmonella enterica subsp. enterica serovar Typhi; conditions: Salmonella enterica, read-out: IZ
smiles,measurement,setting,value
CCC1[C@@H]2Nc3ccc(Br)cc3C(c3ccccc3)[C@H]2CN1OS(=O)(=O)c1ccc(C)cc1 (some centres undefined),DNA gyrase inhibition (active/inactive),Escherichia coli [1],Active
same,zone of inhibition at 5 µg/disc,Salmonella typhi [2],10 mm
same,inhibition of gyrase mRNA expression (active/not active),Escherichia coli [3],inactive
same,zone of inhibition at 5 µg/disc,Escherichia coli [4],12 mm
same,zone of inhibition at 5 µg/disc,Klebsiella pneumoniae [5],10 mm
same,MIC50,Bacillus subtilis [6],0.25 µg/mL
same,MIC90,Bacillus subtilis [6],0.5 µg/mL
same,zone of inhibition at 10 µg/disc,Pseudomonas aeruginosa [7],26 mm
same,zone of inhibition at 25 µg/disc,Staphylococcus aureus [8],36 mm
same,zone of inhibition at 10 µg/disc,Escherichia coli [9],14 mm
same,zone of inhibition at 5 µg/disc,Staphylococcus aureus [10],20 mm
same,MIC50,Pseudomonas aeruginosa [11],0.25 µg/mL
same,MIC90,Pseudomonas aeruginosa [11],0.5 µg/mL
same,zone of inhibition at 15 µg/disc,Escherichia coli [12],16 mm
same,zone of inhibition at 20 µg/disc,Salmonella typhi [13],22 mm
same,zone of inhibition at 20 µg/disc,Staphylococcus aureus [14],30 mm
same,zone of inhibition at 20 µg/disc,Klebsiella pneumoniae [15],24 mm
same,zone of inhibition at 20 µg/disc,Pseudomonas aeruginosa [16],34 mm
same,zone of inhibition at 10 µg/disc,Salmonella typhi [17],16 mm
same,zone of inhibition at 5 µg/disc,Pseudomonas aeruginosa [18],24 mm
same,MIC50,Salmonella typhi [19],0.25 µg/mL
same,MIC90,Salmonella typhi [19],0.5 µg/mL
same,MIC50,Escherichia coli [20],0.25 µg/mL
same,MIC90,Escherichia coli [20],0.5 µg/mL
same,zone of inhibition at 10 µg/disc,Bacillus subtilis [21],8 mm
same,inhibition,Escherichia coli [22],Active
same,zone of inhibition at 15 µg/disc,Salmonella typhi [23],18 mm
same,zone of inhibition at 15 µg/disc,Bacillus subtilis [24],9 mm
same,zone of inhibition at 25 µg/disc,Bacillus subtilis [25],11 mm
same,MIC50,Klebsiella pneumoniae [26],0.25 µg/mL
same,MIC90,Klebsiella pneumoniae [26],0.5 µg/mL
same,zone of inhibition at 15 µg/disc,Pseudomonas aeruginosa [27],28 mm
same,zone of inhibition at 25 µg/disc,Escherichia coli [28],23 mm
same,MIC50,Staphylococcus aureus [29],0.25 µg/mL
same,MIC90,Staphylococcus aureus [29],0.5 µg/mL
same,zone of inhibition at 25 µg/disc,Klebsiella pneumoniae [30],26 mm
same,zone of inhibition at 20 µg/disc,Escherichia coli [31],22 mm
same,zone of inhibition at 25 µg/disc,Pseudomonas aeruginosa [32],36 mm
same,zone of inhibition at 10 µg/disc,Klebsiella pneumoniae [33],14 mm
same,zone of inhibition at 10 µg/disc,Staphylococcus aureus [34],24 mm
same,zone of inhibition at 20 µg/disc,Bacillus subtilis [35],10 mm
same,zone of inhibition at 15 µg/disc,Staphylococcus aureus [36],26 mm
same,zone of inhibition at 15 µg/disc,Klebsiella pneumoniae [37],16 mm
same,zone of inhibition at 25 µg/disc,Salmonella typhi [38],24 mm
